Data from ChEMBL document CHEMBL1145587, “Facile formation of hydrophilic derivatives of 5H-8,9-dimethoxy-5-[2-(N,N-dimethylamino)ethyl]-2,3-methylenedioxydibenzo[c,h] [1,6]naphthyridin-6-one (ARC-111) and its 12-aza analog via quaternary ammonium intermediates” (Bioorg Med Chem Lett, 2008).

target: T1, DNA topoisomerase 1 (Homo sapiens) (UniProt P11387); assay: Effect on human topoisomerase 1-mediated plasmid DNA cleavage relative to topotecan; settings: not given
T1 sequence (whole entry): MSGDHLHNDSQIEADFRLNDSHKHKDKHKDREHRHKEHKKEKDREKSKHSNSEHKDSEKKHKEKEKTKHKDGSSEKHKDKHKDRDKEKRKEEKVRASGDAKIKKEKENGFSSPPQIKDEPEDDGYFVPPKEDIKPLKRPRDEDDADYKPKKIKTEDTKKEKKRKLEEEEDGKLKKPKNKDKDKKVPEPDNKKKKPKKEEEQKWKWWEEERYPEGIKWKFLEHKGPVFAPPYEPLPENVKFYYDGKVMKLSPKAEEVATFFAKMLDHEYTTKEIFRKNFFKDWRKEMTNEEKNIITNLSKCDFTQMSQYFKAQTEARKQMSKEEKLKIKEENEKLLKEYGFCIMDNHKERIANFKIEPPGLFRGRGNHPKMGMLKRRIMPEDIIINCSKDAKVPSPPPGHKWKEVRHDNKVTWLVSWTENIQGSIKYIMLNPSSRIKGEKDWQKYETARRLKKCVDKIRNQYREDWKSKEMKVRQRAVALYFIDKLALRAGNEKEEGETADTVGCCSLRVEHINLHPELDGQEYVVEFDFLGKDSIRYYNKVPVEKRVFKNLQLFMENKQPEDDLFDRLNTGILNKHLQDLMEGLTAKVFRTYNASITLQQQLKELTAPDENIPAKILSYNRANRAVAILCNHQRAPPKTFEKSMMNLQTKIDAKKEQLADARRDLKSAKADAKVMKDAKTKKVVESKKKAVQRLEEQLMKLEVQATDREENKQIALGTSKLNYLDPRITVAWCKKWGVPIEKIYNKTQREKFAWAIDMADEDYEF

SMILES	Activity
COc1cc2c(=O)n(CCN(C)C)c3c4cc5c(cc4nnc3c2cc1OC)OCO5	0.3
COc1cc2c(=O)n(CCn3ccnc3)c3c4cc5c(cc4nnc3c2cc1OC)OCO5	0.1
COc1cc2c(=O)n(CCNC(CO)(CO)CO)c3c4cc5c(cc4ncc3c2cc1OC)OCO5	2
COc1cc2c(=O)n(CCN(C)CCN(C)C)c3c4cc5c(cc4ncc3c2cc1OC)OCO5	0.7
COc1cc2c(=O)n(CCN(C)C)c3c4cc5c(cc4ncc3c2cc1OC)OCO5	0.3
COc1cc2c(=O)n(CCO)c3c4cc5c(cc4ncc3c2cc1OC)OCO5	4.7
COc1cc2c(=O)n(CCn3ccnc3)c3c4cc5c(cc4ncc3c2cc1OC)OCO5	2.3
COc1cc2c(=O)n(CCNC(CO)(CO)CO)c3c4cc5c(cc4nnc3c2cc1OC)OCO5	0.2
COc1cc2c(=O)n(CCO)c3c4cc5c(cc4nnc3c2cc1OC)OCO5	0.3
COc1cc2c(=O)n(CCN(C)CCN(C)C)c3c4cc5c(cc4nnc3c2cc1OC)OCO5	0.4
CC[C@@]1(O)C(=O)OCc2c1cc1n(c2=O)Cc2cc3ccccc3nc2-1 [CAMPTOTHECIN]	0.2

tested on: not listed separately; assay: Cytotoxicity against human […] cells; format: functional, cell-based; settings: not given

SMILES	IC50 [nM]
COc1cc2c(=O)n(CCN(C)C)c3c4cc5c(cc4nnc3c2cc1OC)OCO5	2
COc1cc2c(=O)n(CCn3ccnc3)c3c4cc5c(cc4nnc3c2cc1OC)OCO5	400
COc1cc2c(=O)n(CCNC(CO)(CO)CO)c3c4cc5c(cc4ncc3c2cc1OC)OCO5	330
COc1cc2c(=O)n(CCN(C)CCN(C)C)c3c4cc5c(cc4ncc3c2cc1OC)OCO5	45
COc1cc2c(=O)n(CCN(C)C)c3c4cc5c(cc4ncc3c2cc1OC)OCO5	2
COc1cc2c(=O)n(CCO)c3c4cc5c(cc4ncc3c2cc1OC)OCO5	30
COc1cc2c(=O)n(CCn3ccnc3)c3c4cc5c(cc4ncc3c2cc1OC)OCO5	210
COc1cc2c(=O)n(CCNC(CO)(CO)CO)c3c4cc5c(cc4nnc3c2cc1OC)OCO5	65
COc1cc2c(=O)n(CCO)c3c4cc5c(cc4nnc3c2cc1OC)OCO5	13
COc1cc2c(=O)n(CCN(C)CCN(C)C)c3c4cc5c(cc4nnc3c2cc1OC)OCO5	33
CC[C@@]1(O)C(=O)OCc2c1cc1n(c2=O)Cc2cc3ccccc3nc2-1 [CAMPTOTHECIN]	4

tested on: not listed separately; assay: Cytotoxicity against human camptothecin-resistant CPT-K5 cells; format: functional, cell-based; settings: not given

SMILES	IC50 [nM]
COc1cc2c(=O)n(CCN(C)C)c3c4cc5c(cc4nnc3c2cc1OC)OCO5	740
COc1cc2c(=O)n(CCn3ccnc3)c3c4cc5c(cc4nnc3c2cc1OC)OCO5	> 10000
COc1cc2c(=O)n(CCNC(CO)(CO)CO)c3c4cc5c(cc4ncc3c2cc1OC)OCO5	7000
COc1cc2c(=O)n(CCN(C)CCN(C)C)c3c4cc5c(cc4ncc3c2cc1OC)OCO5	2200
COc1cc2c(=O)n(CCN(C)C)c3c4cc5c(cc4ncc3c2cc1OC)OCO5	900
COc1cc2c(=O)n(CCO)c3c4cc5c(cc4ncc3c2cc1OC)OCO5	> 10000
COc1cc2c(=O)n(CCn3ccnc3)c3c4cc5c(cc4ncc3c2cc1OC)OCO5	> 10000
COc1cc2c(=O)n(CCNC(CO)(CO)CO)c3c4cc5c(cc4nnc3c2cc1OC)OCO5	5700
COc1cc2c(=O)n(CCO)c3c4cc5c(cc4nnc3c2cc1OC)OCO5	1300
COc1cc2c(=O)n(CCN(C)CCN(C)C)c3c4cc5c(cc4nnc3c2cc1OC)OCO5	2200
CC[C@@]1(O)C(=O)OCc2c1cc1n(c2=O)Cc2cc3ccccc3nc2-1 [CAMPTOTHECIN]	> 10000

tested on: P388; assay: Cytotoxicity against […] cells; format: functional, cell-based; settings: Mus musculus

SMILES	IC50 [nM]
COc1cc2c(=O)n(CCN(C)C)c3c4cc5c(cc4nnc3c2cc1OC)OCO5	2
COc1cc2c(=O)n(CCn3ccnc3)c3c4cc5c(cc4nnc3c2cc1OC)OCO5	190
COc1cc2c(=O)n(CCNC(CO)(CO)CO)c3c4cc5c(cc4ncc3c2cc1OC)OCO5	330
COc1cc2c(=O)n(CCN(C)CCN(C)C)c3c4cc5c(cc4ncc3c2cc1OC)OCO5	35
COc1cc2c(=O)n(CCN(C)C)c3c4cc5c(cc4ncc3c2cc1OC)OCO5	1
COc1cc2c(=O)n(CCO)c3c4cc5c(cc4ncc3c2cc1OC)OCO5	30
COc1cc2c(=O)n(CCn3ccnc3)c3c4cc5c(cc4ncc3c2cc1OC)OCO5	200
COc1cc2c(=O)n(CCNC(CO)(CO)CO)c3c4cc5c(cc4nnc3c2cc1OC)OCO5	40
COc1cc2c(=O)n(CCO)c3c4cc5c(cc4nnc3c2cc1OC)OCO5	12
COc1cc2c(=O)n(CCN(C)CCN(C)C)c3c4cc5c(cc4nnc3c2cc1OC)OCO5	19
CC[C@@]1(O)C(=O)OCc2c1cc1n(c2=O)Cc2cc3ccccc3nc2-1 [CAMPTOTHECIN]	4

tested on: not listed separately; assay: Cytotoxicity against […] cells; format: functional, cell-based; settings: Mus musculus, P388CPT45

SMILES	IC50 [nM]
COc1cc2c(=O)n(CCN(C)C)c3c4cc5c(cc4nnc3c2cc1OC)OCO5	230
COc1cc2c(=O)n(CCn3ccnc3)c3c4cc5c(cc4nnc3c2cc1OC)OCO5	> 10000
COc1cc2c(=O)n(CCNC(CO)(CO)CO)c3c4cc5c(cc4ncc3c2cc1OC)OCO5	3500
COc1cc2c(=O)n(CCN(C)CCN(C)C)c3c4cc5c(cc4ncc3c2cc1OC)OCO5	70
COc1cc2c(=O)n(CCN(C)C)c3c4cc5c(cc4ncc3c2cc1OC)OCO5	230
COc1cc2c(=O)n(CCO)c3c4cc5c(cc4ncc3c2cc1OC)OCO5	900
COc1cc2c(=O)n(CCn3ccnc3)c3c4cc5c(cc4ncc3c2cc1OC)OCO5	> 10000
COc1cc2c(=O)n(CCNC(CO)(CO)CO)c3c4cc5c(cc4nnc3c2cc1OC)OCO5	3000
COc1cc2c(=O)n(CCO)c3c4cc5c(cc4nnc3c2cc1OC)OCO5	700
COc1cc2c(=O)n(CCN(C)CCN(C)C)c3c4cc5c(cc4nnc3c2cc1OC)OCO5	300
CC[C@@]1(O)C(=O)OCc2c1cc1n(c2=O)Cc2cc3ccccc3nc2-1 [CAMPTOTHECIN]	> 10000
